Reference: patent US6383490B1, “Anti-cocaine vaccine” (The Scripps Research Institute, priority 1995, dated 2002)

What was measured:
[1] = tested on: cocaine-binding immunoglobulins; assay: Competitive binding studies of the immune response (cocaine-binding immunoglobulins)
Excerpt: Consequently, inhibition of cocaine-binding immunoglobulins would not be expected in vivo from these metabolites.

[2] = Plasma cocaine levels by HPLC; type: in vivo, rat; details: 15 mg/kg i.p.
Excerpt: Analysis of serum immunoglobulin dissociation kinetics, antigen-binding capacity and the effect of antigen dilution (P. Minden, et al., in Handbook of Experimental Immunology. Weir, D. M., Ed., (Davis Co., Philadelphia, 1967), chap. 13, pp. 463-492; M. W. Steward et al., Antibody Affinity: Thermodynamic Aspects and Biological Significance, (CRC Press, Boca Raton, Fla., 1983); H. N. Eisen, in Methods in Medical Research. Eisen, H. N., Ed., (Yearbook Medical Publishers, Chicago, 1964), pp. 106-114; J. H. Hill, et al. Clin. Exp. Immunol. (1973): vol. 15, p 213-224.) were consistent with an in vivo antibody excess having a micromolar average binding constant. […] To complement these experiments, plasma cocaine levels were determined by HPLC according to a modified method of Benuck (M. Benuck, et al., J. Pharmacol. Exp. Ther.(1987): vol. 243, p 144-149) following a 15 mg/kg i.p. injection in a separate group of animals.

Question: For CN1[C@H]2CC[C@@H]1[C@@H](C(=O)O)[C@@H](OC(=O)c1ccccc1)C2 [benzoylecgonine], which “discrimination for cocaine versus competitor” value ([1]; immune response to hapten 4 conjugate) is on record?
Answer: The value was “greater than 900 fold”.

Question: With COC(=O)[C@@H]1[C@H]2CC[C@@H](C[C@@H]1O)N2C [ecgonine methyl ester] as the molecule, how does the “inhibition of cocaine-binding by competitor” value [1] read?
Answer: The value was “no detectable inhibition”.

Question: What does the source list for COC(=O)[C@H]1[C@@H](OC(=O)c2ccccc2)C[C@@H]2CC[C@H]1N2C [cocaine, (−)-cocaine]?
Answer: peak plasma concentration [2]: 5.56 ± 0.31 µM; time of peak plasma concentration [2]: 5 min; half-life ([2]; Wistar, rat, plasma, ip): 25 min
